System: E. Tenella
Assay: Anti-coccidial activity against E. Tenella in chickens
Format: in vivo
Settings: 75 PPM in feed
Method: This test utilizes ten chickens per drug group. Ten chickens are employed as a weight control and ten chickens as an infected control. The drug is given 48 hours in advance of the infection. One gm. of the test drug is mixed in a mechanical mixer with a sufficient amount of chicken feed to result in the desired dosage. The infection consists of approximately 200,000 oocysts given orally by pipette. The tests lasts for eleven days and the surviving bids are autopsied and examined for gross lesions in the ceca. The test bids are rated according to the number of survivors and the number of cecal lesions. The results are expressed as average degree of infection (A.D.I.). An average degree of infection of less than 2.5 is considered to be significant.

CC[C@@H](C(=O)[C@@H](C)[C@@H](O)[C@H](C)CCc1ccc(C)c(O)c1C(=O)O)[C@H]1O[C@](CC)([C@H]2CC[C@](O)(CC)[C@H](C)O2)C[C@@H]1C [Lasalocid]
Mort. %: 0% | Weight Gain %: 98% | Ave. Degree Infect. (<2.5 considered significant): 0.0
